Assay results from patent US5384128A, “Method of and compounds for treatment for cystic fibrosis” (University of Alabama Research Foundation, priority 1993, dated 1995).
Blank lines part the entries; values can stand above or below the compound they belong to.

Assays:
T84 cells [1] = assay: 125I- efflux assay (Cl- channel activity), T84 cells; format: cell-based; conditions: for potency in stimulating 125I- efflux relative to DM: equimolar concentrations
Description: (§1) Forskolin or cAMP-stimulated Cl^- channel activity is a standard measurement of the activity of Cl^- channels represented by CFTR, while ionomycin or Ca^++ ionophore-stimulated Cl^- channel activity is a measure of the activity of Ca^++ -regulated Cl^- channels which arc different from those represented by CFTR. […] In contrast Ca^++ -regulated Cl^- channels operate normally in CF cells and are opened by ionomycin just as they are in T84 cells.
(§2) The cells employed were (1) T84 cells (ATCC Accession No. CCL 248) (2) CFPAC-1 cells (ATCC Accession No. CRL 1918) (a newly established continuous line of pancreatic duct adenocarcinoma cells from a CF patient which is homozygous for the deletion of phenylalanine in the 508 position of CFTR, the mutation found in 70% of CF patients), (3) clones of CFPAC-1 cells which have been transduced with a retroviral vector (PLJ) containing (PLJ-CFTR-CFPAC) or lacking (PLJ-CFPAC) cDNA for functional CFTR, and (4) 2CFSMEo-, a continuous cell line derived from the tracheal submucosal gland of a CF patient whose exact genotype is unknown but which expresses the phenotype of defective Cl^- channel permeability characteristic of CF.
(§3) In general, cells were washed with 1 ml of efflux medium (140 mM NaCl, 1 mM Ca gluconate, 1 mM Mg gluconate, 5 mM KH2 PO4, 10 mM Tris-Hepes pH 7.4) four times and incubated with ^125 I- (3μl Na ^125 I=12 μC) in 1 ml of the same medium containing 5 mM D-glucose for 1 hour at 37° C. to load the cells with ^125 I. The cells were then washed quickly five times with 1 ml of the efflux medium at 22° C. to remove any ^125 I- that had not been taken up by the cells. One ml of the efflux medium at 22° C. was then added to initiate efflux and left in contact with the cells for 1 minute, before being removed and replaced with another 1 ml of medium. This replacement procedure was carried out 2-5 times before addition of the appropriate surfactant and/or agonist in 1 ml of the same medium to one culture dish (experimental) while to another dish 1 ml of medium without surfactant and/or agonist was added (control). Medium with or without surfactant and/or agonist was replaced at 0.5 minute intervals until the 10 minute time point when the replacement time was prolonged to 1 minute intervals. The samples of the replacement media were counted in a gamma counter to determine the amount of ^125 I- effluxing from the cells into the medium in each time interval. After 15 minutes when measurement of efflux was completed the cells were extracted for 30 minutes with 1 ml 0.2N NaOH, 0.15% SDS and the extract counted to determine the residual ^125 I- remaining in the cells.
(§4) The data is expressed as ^125 I- remaining in the cells (set at 100% at the initiation of efflux) and plotted against the time of efflux in minutes and/or as the ln % of ^125 I- remaining in the cells, plotted against the time of efflux in minutes. Expressing the data in the latter form facilitates calculation of the apparent rate constant for ^125 I- efflux using the equation r=[ln (R1)-ln (R2)]/(t1-t2) where R1 and R2 are the percent of counts remaining in the cell layer at times t1 and t2 respectively.

2CFSMEo- = assay: 125I- efflux assay, airway epithelial cell line of a CF patient; format: cell-based, human; conditions: 2CFSMEo- cells
Description: as §2
as §3, with “This replacement procedure was carried out 2-5 times before addition of the appropriate surfactant and/or agonist in 1 ml of the same medium to one culture dish (experimental) while to another dish 1 ml of medium without surfactant and/or agonist was added (control). Medium with or without surfactant and/or agonist was replaced at 0.5 minute intervals until the 10 minute time point when the replacement time was prolonged to 1 minute intervals.” left out
(§5) The data is expressed as ^125 I- remaining in the cells (set at 100% at the initiation of efflux) and plotted against the time of efflux in minutes and/or as the ln % of ^125 I- remaining in the cells, plotted against the time of efflux in minutes. […]

CFPAC-1 cells = assay: 125I- efflux assay, CFPAC-1 cells; format: cell-based, human
Description: as §2, §3, §4

CF cells = assay: 125I- efflux / Cl- channel opening in CF cells; format: cell-based
Method: as §1
In general, cells were washed with 1 ml of efflux medium (140 mM NaCl, 1 mM Ca gluconate, 1 mM Mg gluconate, 5 mM KH2 PO4, 10 mM Tris-Hepes pH 7.4) four times and incubated with ^125 I- (3μl Na ^125 I=12 μC) in 1 ml of the same medium containing 5 mM D-glucose for 1 hour at 37° C. to load the cells with ^125 I. The cells were then washed quickly five times with 1 ml of the efflux medium at 22° C. to remove any ^125 I- that had not been taken up by the cells. […] The samples of the replacement media were counted in a gamma counter to determine the amount of ^125 I- effluxing from the cells into the medium in each time interval. After 15 minutes when measurement of efflux was completed the cells were extracted for 30 minutes with 1 ml 0.2N NaOH, 0.15% SDS and the extract counted to determine the residual ^125 I- remaining in the cells.

PLJ-CFPAC-10 = assay: 125I- efflux assay, CFPAC-1 cells transduced with vector lacking CFTR cDNA; format: cell-based, human
Description: as §2
(§6) In general, cells were washed with 1 ml of efflux medium (140 mM NaCl, 1 mM Ca gluconate, 1 mM Mg gluconate, 5 mM KH2 PO4, 10 mM Tris-Hepes pH 7.4) four times and incubated with ^125 I- (3μl Na ^125 I=12 μC) in 1 ml of the same medium containing 5 mM D-glucose for 1 hour at 37° C. to load the cells with ^125 I. The cells were then washed quickly five times with 1 ml of the efflux medium at 22° C. to remove any ^125 I- that had not been taken up by the cells. One ml of the efflux medium at 22° C. was then added to initiate efflux and left in contact with the cells for 1 minute, before being removed and replaced with another 1 ml of medium. […] The samples of the replacement media were counted in a gamma counter to determine the amount of ^125 I- effluxing from the cells into the medium in each time interval. After 15 minutes when measurement of efflux was completed the cells were extracted for 30 minutes with 1 ml 0.2N NaOH, 0.15% SDS and the extract counted to determine the residual ^125 I- remaining in the cells.
as §5

PLJ-CFTR-CFPAC-10 = assay: 125I- efflux assay, CFPAC-1 cells transduced with wild-type CFTR cDNA; format: cell-based, human; conditions: vector containing wild-type CFTR cDNA (PLJ-CFTR-CFPAC-10)
Description: as §2, §6, §5

[2] = Effective dosage (general statement); format: cell-based; conditions: maltoside with alkyl chain of 12, 13 or 14 carbon atoms
CFPAC-1 = conditions: CFPAC-1, homozygous ΔF508; cited from earlier work
CFTR in T84 cells = conditions: cited from earlier work
T84 cells [3] = conditions: human
T84 cells [4] = conditions: comparison statement; cited from earlier work

Compound: O=C(O)c1cc([N+](=O)[O-])ccc1NCCCc1ccccc1 [NPPB, reference compound]
- 125I- efflux inhibition (T84 cells [1]; T84 cells, blocker of some Cl- channels): inhibits
- blocking of Cl- channels (2CFSMEo-): blocked

Compound: C[C@H](CCC(=O)O)C[C@H](C)C[C@H](C)C(=O)/C=C(\O)[C@H](C)C[C@H](C)C/C=C/[C@@H](C)[C@@H](O)[C@@H](C)[C@@H](O)C[C@@H]1CC[C@@](C)([C@H]2CC[C@@](C)([C@@H](C)O)O2)O1 [ionomycin, reference compound]
- response in 125I- efflux assay (CFPAC-1 cells): responds briskly
- Opening of Ca++-regulated Cl- channels (CF cells): opened
- stimulation of 125I- efflux (T84 cells [1]; T84 cells, 1 μM ionomycin): stimulation

Compound: CCCCCCCCCCCCCCO[C@@H]1O[C@H](CO)[C@@H](O[C@@H]2O[C@@H](CO)[C@H](O)[C@@H](O)[C@@H]2O)[C@H](O)[C@H]1O (stereo in doubt) [tetra DM, tetradecylmaltoside]
- increase in 125I- efflux, dose dependence (CFPAC-1 cells): dose-dependent increase
- potency as Cl- channel activator among alkylmaltosides tested (T84 cells [1]): most potent
- cause of 125I- efflux stimulation: cell lysis (T84 cells [1]; T84 cells): not due to lysis of the cells
- potency change on lengthening alkyl chain, DM as reference standard (T84 cells [1]; T84 cells): markedly increases the potency
- stimulation of 125I- efflux, dose dependence (T84 cells [1]; T84 cells, 10-100 μM): dose-dependent stimulation
- potency in stimulating 125I- efflux relative to DM (T84 cells [1]; T84 cells): more potent than DM
- Cl- channel activity as measured by increased 125I- efflux (PLJ-CFPAC-10): stimulate
- stimulation of 125I- efflux, dose dependence (2CFSMEo-): dose-dependent stimulation
- Cl- channel activity as measured by increased 125I- efflux (PLJ-CFTR-CFPAC-10): stimulate
- effective dosage [2]: 10 to 400 µM

Compound: CCCCCCCCCCCCCO[C@@H]1O[C@H](CO)[C@@H](OC2OC(CO)C(O)C(O)C2O)[C@H](O)[C@H]1O (stereo in doubt) [tri DM, tridecylmaltoside]
- increase in 125I- efflux, dose dependence (CFPAC-1 cells): dose-dependent increase
- potency as Cl- channel activator among alkylmaltosides tested (T84 cells [1]): most potent
- cause of 125I- efflux stimulation: cell lysis (T84 cells [1]; T84 cells): not due to lysis of the cells
- potency change on lengthening alkyl chain, DM as reference standard (T84 cells [1]; T84 cells): markedly increases the potency
- stimulation of 125I- efflux, dose dependence (T84 cells [1]; T84 cells, 10-100 μM): dose-dependent stimulation
- potency in stimulating 125I- efflux relative to DM (T84 cells [1]; T84 cells): more potent than DM
- Cl- channel activity as measured by increased 125I- efflux (PLJ-CFPAC-10): stimulate
- stimulation of 125I- efflux, dose dependence (2CFSMEo-): dose-dependent stimulation
- Cl- channel activity as measured by increased 125I- efflux (PLJ-CFTR-CFPAC-10): stimulate
- effective dosage [2]: 10 to 400 µM

Compound: CCCCCCCCO[C@@H]1O[C@H](CO)[C@@H](O)[C@H](O)[C@H]1O [octylglucoside]
- concentration at which an appreciable effect in stimulating 125I- efflux is shown (T84 cells [1]; T84 cells): ≥ 500 µM
- potency relative to DM, tri DM and tetra DM (T84 cells [1]; T84 cells): less potent than DM, tri DM and tetra DM
- stimulation of 125I- efflux (T84 cells [1]; T84 cells): stimulate

Compound: C=C[C@@]1(C)CC(=O)[C@]2(O)[C@@]3(C)[C@@H](O)CCC(C)(C)[C@@H]3[C@H](O)[C@H](OC(C)=O)[C@@]2(C)O1 [forskolin]
- response in 125I- efflux assay (CFPAC-1 cells): unresponsive
- activation of the Cl- channel (CFPAC-1): inability of the channel to be activated
- 125I- efflux in response to agonist (CF cells): not stimulated
- stimulation of 125I- efflux (T84 cells [1]; T84 cells, 20 μM forskolin): stimulation
- activation of CFTR (CFTR in T84 cells): activate CFTR in T84 cells

- MNTC (T84 cells [3]): < 150 µM
Compound: CCCCCCCCCCCCO[C@@H]1O[C@H](CO)[C@@H](O[C@H]2O[C@H](CO)[C@@H](O)[C@H](O)[C@H]2O)[C@H](O)[C@H]1O [DM, dodecylmaltoside]
- cause of 125I- efflux stimulation: cell lysis (T84 cells [1]; T84 cells): not due to lysis of the cells
- reversibility of response upon removal of the agent (T84 cells [1]; T84 cells): reversible
- rate of 125I- efflux during exposure, compared to control rate (T84 cells [1]; T84 cells, 100 μM or 200 μM DM): increased rate
- rate of 125I- efflux with DM remaining during efflux phase after preincubation, compared to same concentration without preincubation (T84 cells [1]; T84 cells, 100 μM or 200 μM DM): comparable
- rate of 125I- efflux after removal of agent (T84 cells [1]; T84 cells, 100 μM or 200 μM DM, after 2 min exposure): reverts to the control rate
- stimulation of 125I- efflux, dose dependence (T84 cells [1]; T84 cells, 10-400 μM): dose-dependent stimulation
- rate of 125I- efflux on further exposure to forskolin in presence of DM (T84 cells [1]; T84 cells, 80-100 μM DM plus 20 μM forskolin): additional increase
- Cl- channel activity as measured by increased 125I- efflux (PLJ-CFPAC-10): stimulate
- Cl- channel activity as measured by increased 125I- efflux (PLJ-CFTR-CFPAC-10): stimulate
- effective dosage [2]: 10 to 400 µM

Compound: dodecylsucrose [DS]
- activity as Cl- channel activator on altering saccharide moiety, compared to DM at 100 μM (T84 cells [1]; T84 cells): markedly reduces the activity
- potency relative to DM, tri DM and tetra DM (T84 cells [1]; T84 cells): less potent than DM, tri DM and tetra DM
- stimulation of 125I- efflux (T84 cells [1]; T84 cells): stimulate
- effect on 125I- efflux relative to DM at 100 μM (T84 cells [1]; T84 cells, 100 μM): significantly smaller effect than DM

Compound: C[C@@H]1CC[C@@]2(OC1)O[C@H]1[C@@H](O)[C@H]3[C@@H]4CC[C@H]5C[C@@H](O[C@@H]6O[C@H](CO)[C@H](O[C@@H]7O[C@H](CO)[C@@H](O)[C@H](O[C@@H]8OC[C@@H](O)[C@H](O)[C@H]8O)[C@H]7O[C@@H]7O[C@H](CO)[C@H](O)[C@H](O[C@@H]8O[C@H](CO)[C@@H](O)[C@H](O)[C@H]8O)[C@H]7O)[C@H](O)[C@H]6O)[C@H](O)C[C@]5(C)[C@H]4CC[C@]3(C)[C@H]1[C@@H]2C [Digitonin, digitonin, reference compound]
- stimulation of 125I- efflux (T84 cells [1]; T84 cells, 50 μM): pronounced effect

Compound: CCCCCCCCCCCCOS(=O)(=O)[O-].[Na+] [sodium dodecyl sulfate (SDS), sodium dodecyl sulfate]
- release upon cell lysis (T84 cells [4]): precipitous release

Compound: C[S+](C)[O-] [Dimethylsulfoxide (DMSO), Dimethylsulfoxide, reference compound]
- effect in stimulating 125I- efflux (T84 cells [1]; T84 cells, 17.6 mM): no effect

Compound: CCCCCCCCCCCCO[C@@H]1O[C@H](CO)[C@@H](O)[C@H](O)[C@H]1O [DG, dodecylglucoside]
- activity as Cl- channel activator on altering saccharide moiety, compared to DM at 100 μM (T84 cells [1]; T84 cells): markedly reduces the activity
- effect in stimulating 125I- efflux (T84 cells [1]; T84 cells, 100 μM): minimal effect
